The source of these data is US9670197B2, “Small molecule modifiers of the Hec1-Nek2 interaction in G2/M” (The Regents of the University of California, priority 2013, dated 2017).

One test deals with HeLa. As to the kind of experiment: Cancer cell growth inhibition, HeLa. The test is classed as cell-based. To be noted: Homo sapiens; Table 2, Cervical, HeLa; read-out: cancer cell growth suppression. The procedure:
(§1) Cell lines and establishment of stable cell lines. Human breast cancer cell lines MDA-MB-231 and MDA-MB-468, osteosarcoma line U20S, cervical adenocarcinoma line HeLa, and normal skin fibroblast Hs27 were maintained in DMEM medium (Invitrogen, Grand Island, N.Y.) supplemented 10% fetal bovine serum (FBS) and 1% penicillin-streptomycin. The leukemia cell line K562 and glioblastoma cell line T98G were grown in RPMI 1640 supplemented 10% FBS and 1% penicillin-streptomycin. Normal mammary gland epithelial cell line MCF10A was cultured in DMEM/F12 (50:50) plus 5% horse serum, 0.1 μg/mL cholera toxin, 10 μg/mL insulin, 0.5 μg/mL hydrocortisone, and 20 ng/mL epidermal growth factor. To establish MDA-MB-468 cells that stably expressed each individual GFP-Hec1 deletion construct described above, cells were infected with retrovirus expressing GFP-Hec1 WT, GFP-Hec1 W395A and GFP-Hec1 WLK/AAA, and were selected with 2 μg/ml puromycin.

The test system of another test is PLK1. Nature of the test: PLK1 expression in treated HeLa cells, western blot. Type of test: cell-based. As to conditions: dose series. The procedure:
(§2) INH-induced Nek2 degradation; INH-inhibition of Hec1 phosphorylation by Nek2. […] To evaluate whether INH treatment affected cell cycle profile or Nek2 mRNA level, we performed FACS and real-time PCR analysis.
(§3) Protein extraction and western blot analysis. The protein extractions and western blot analyses of Examples 4-6 were conducted as follows. Cell extracts were prepared and equal amounts of protein were separated by SDS-PAGE (10% w/v gel) followed by electrophoretic transfer to PVDF membranes (Millipore, Billerica, Mass.). After blocking with 5% w/v powdered non-fat milk, the membrane was incubated with different antibodies for overnight at 4° C. and treated for 1 hr with horseradish peroxidase-conjugated goat anti-mouse IgG and goat anti-rabbit IgG antibodies (GeneTex, Irvine, Calif.). ECL detection of the horseradish peroxidase reaction was performed according to the manufacturer's instructions (Millipore, Billerica, Mass.). Protein signal was measured on a LAS 4000 mini Imaging System (Fujifilm, Valhalla, N.Y.).
A general note: Immunoblotting shows a protein as a band on a membrane.

The test system of another test is MB468. As to the kind of experiment: Cancer cell growth inhibition, MB468 (MDA-MB-468). The test is classed as cell-based. As to conditions: Homo sapiens, Table 2, Breast adenocarcinoma, read-out: cancer cell growth suppression.
The next test has as its system U2OS. Nature of the test: Cancer cell growth inhibition, U2OS osteosarcoma. The test is classed as cell-based. As to conditions: Homo sapiens, Table 2, Osteosarcoma, read-out: cancer cell growth suppression. The procedure: as §1
The target in another test is T1, Nek2 (Homo sapiens, UniProt P51955).
T1 construct: endogenous in cells; host or cells: HeLa
T1 sequence (P51955 1-445): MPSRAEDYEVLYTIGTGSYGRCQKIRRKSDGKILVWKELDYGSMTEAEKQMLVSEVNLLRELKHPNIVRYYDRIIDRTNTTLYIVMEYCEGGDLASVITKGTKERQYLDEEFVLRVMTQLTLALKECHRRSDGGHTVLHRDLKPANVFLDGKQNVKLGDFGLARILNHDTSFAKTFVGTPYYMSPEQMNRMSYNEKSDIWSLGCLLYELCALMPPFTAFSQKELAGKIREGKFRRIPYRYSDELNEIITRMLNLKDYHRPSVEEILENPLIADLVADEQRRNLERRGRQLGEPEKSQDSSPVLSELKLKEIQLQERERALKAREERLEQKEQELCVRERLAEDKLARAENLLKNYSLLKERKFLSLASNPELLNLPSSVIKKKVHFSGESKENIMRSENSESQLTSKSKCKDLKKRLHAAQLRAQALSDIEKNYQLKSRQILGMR
Nature of the test: Biotin-conjugated INH pull-down, Nek2. Type of test: binding.

The next test deals with cancer cell lines. As to the kind of experiment: Cancer cell growth inhibition. The test is classed as cell-based.
The next test concerns cyclin B1. As to the kind of experiment: Cyclin B1 level in treated HeLa cells, western blot. Type of test: cell-based. As to conditions: dose series. The procedure: as §2, §3
A further test concerns the target T2, Hec1 (Homo sapiens, UniProt O14777).
T2 construct: expressed in transfected cells; host or cells: HeLa cells (extracts)
T2 sequence (O14777 1-642): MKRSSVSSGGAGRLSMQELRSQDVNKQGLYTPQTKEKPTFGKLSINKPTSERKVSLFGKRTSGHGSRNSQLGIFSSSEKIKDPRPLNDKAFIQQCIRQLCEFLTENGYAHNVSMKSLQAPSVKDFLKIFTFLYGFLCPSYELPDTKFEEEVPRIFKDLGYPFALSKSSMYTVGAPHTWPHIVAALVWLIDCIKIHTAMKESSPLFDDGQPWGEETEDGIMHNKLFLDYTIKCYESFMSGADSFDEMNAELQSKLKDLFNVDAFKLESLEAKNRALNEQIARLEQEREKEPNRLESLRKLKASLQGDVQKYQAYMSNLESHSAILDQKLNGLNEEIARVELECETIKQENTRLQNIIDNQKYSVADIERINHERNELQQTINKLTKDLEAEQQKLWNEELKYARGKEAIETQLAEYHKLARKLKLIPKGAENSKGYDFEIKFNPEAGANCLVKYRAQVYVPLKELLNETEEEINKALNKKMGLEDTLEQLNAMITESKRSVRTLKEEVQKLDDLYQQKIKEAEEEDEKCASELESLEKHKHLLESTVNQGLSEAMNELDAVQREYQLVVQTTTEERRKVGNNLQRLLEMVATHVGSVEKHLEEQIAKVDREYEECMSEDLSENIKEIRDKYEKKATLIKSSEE
Nature of the test: Hec1 protein level in treated HeLa cells, western blot. The test is classed as cell-based. As to conditions: 1 μM, time course. The procedure:
as §2, §3

On to `Cc1cc(C)c(-c2csc(C(=O)c3ccncc3)n2)c(C)c1` [INH41, (4-mesitylthiazol-2-yl)(pyridin-4-yl)methanone], for which the IC50 with HeLa is 670 nM; with MB468, 690 nM; with U2OS it was 630 nM. For the same molecule, the “expression of PLK1” value in the test on PLK1 is “not affected”. Also, at Nek2, the “interaction with Nek2 in pull-down” value is recorded as “Nek2 does not interact”. For the same molecule, in the test with cancer cell lines, the “inhibition of cancer cell growth, IC50 (in words)” value was “sub-micromolar IC50”. For the same molecule, in the test with cyclin B1, the “change in cyclin B1” value was “no significant change”. The “change in Hec1 protein level” value at Hec1 is reported as “little change”.
For `Cc1cc(N2CCCCC2)cc(C)c1-c1csc(NC(=O)c2ccncc2)n1` [INH154, N-(4-(2,6-Dimethyl-4-(piperidin-1-yl)phenyl)thiazol-2-yl)isonicotinamide], in the test on PLK1, the “expression of PLK1” value is reported as “not affected”. Besides, in the test on U2OS, the IC50 is 110 nM. For the same molecule, at Nek2, the “interaction with Nek2 in pull-down” value was “Nek2 does not interact”. The “inhibition of cancer cell growth, IC50 (in words)” value in the test on cancer cell lines is listed as “sub-micromolar IC50”. The “change in cyclin B1” value in the test on cyclin B1 was “no significant change”. Also, the “change in Hec1 protein level” value at Hec1 was “little change”.
